Legend:
neuropeptide CGRP [1] = experiment: CGRP ELISA assay in co-culture of keratinocytes and sensory neurons, oxidative stress with AITC; format: cell-based, human; conditions: positive control: AITC 1 mM alone, 30 min stress; unstressed control (DMSO 0.2%) = 100; n=6
Experimental: (§1) Sensory neurons were obtained from hiPS cells (human induced pluripotent stem cells), which were themselves obtained from human fibroblasts. The cells were seeded and maintained for 6 days in a differentiation-inducing medium at 37° C. (5% CO2). The culture medium was changed every 2 days. After 9 days in culture, the culture medium was replaced with a maturation medium. Cells were maintained in culture at a temperature of 37° C. under 5% CO2. The culture medium was changed every 2-3 days. After 14 days in culture, commercial keratinocytes from an adult donor (Lonza) were added to the differentiated hiPS cell culture. The co-culture was maintained in a culture medium consisting of a mixture of maturation medium and keratinocyte growth medium (Promocell) at a temperature of 37° C. under 5% CO2. The culture medium was changed every 2-3 days.
(§2) After a 17-day co-culture period, the composition was added to the medium at a final concentration by weight relative to the total weight of the medium and composition of 0.01% or 0.05% (w/w). […]
CGRP assay: After a 30-minute stress period, the culture supernatants were recovered and a CGRP assay by ELISA was performed. The results are expressed as the mean of 6 samples (n=6). […]

[2] = test system: MOR receptor (μ-opioid receptor); experiment: MOR receptor immunolabeling in co-culture of human keratinocytes and sensory neurons stressed with AITC; format: cell-based; conditions: positive control: AITC 1 mM alone; composition-free control (DMSO 0.2%) = 100; n=6
Experimental: as §1, §2
(§3) Photographs were taken with an automated microscope (InCell 2200; GE Healthcare) at ×20 magnification. MOR marker expression density was measured and compared with the control condition, corresponding to the mean of 6 samples (n=6). […]

[3] = test system: co-culture of sensory neurons and keratinocytes; experiment: Length of neuronal extensions in co-culture of sensory neurons and keratinocytes stressed with capsaicin; format: cell-based, human; conditions: positive control: capsaicin 10 μM alone; composition-free control (DMSO 0.2%) = 100; n=6
Experimental: as §1
After a 17-day co-culture period, the composition was added to the medium at a final concentration by weight relative to the total weight of the medium and composition of 0.01% or 0.05% (w/w).
After a 24-hour incubation period, capsaicin (10 µM) or AITC (1 mM) or DMSO (0.2% w/w) as a control, was added to the co-culture in the presence of the composition according to the invention. […]
A neuron count was performed and the length of the neuronal extensions was measured for each condition. […]

[4] = test system: MOR receptor (μ-opioid receptor); experiment: MOR receptor immunolabeling in co-culture of human keratinocytes and sensory neurons stressed with capsaicin; format: cell-based; conditions: positive control: capsaicin 10 μM alone; composition-free control (DMSO 0.2%) = 100; n=6
Experimental: as §1, §2, §3

neuropeptide CGRP [5] = experiment: CGRP ELISA assay in co-culture of keratinocytes and sensory neurons, oxidative stress with capsaicin; format: cell-based, human; conditions: positive control: capsaicin 10 μM alone, 30 min stress; unstressed control (DMSO 0.2%) = 100; n=6
Experimental: Sensory neurons were obtained from hiPS cells (human induced pluripotent stem cells), which were themselves obtained from human fibroblasts. The cells were seeded and maintained for 6 days in a differentiation-inducing medium at 37° C. (5% CO2). The culture medium was changed every 2 days. After 9 days in culture, the culture medium was replaced with a maturation medium. Cells were maintained in culture at a temperature of 37° C. under 5% CO2. The culture medium was changed every 2-3 days. After 14 days in culture, commercial keratinocytes from an adult donor (Lonza) were added to the differentiated hiPS cell culture. The co-culture was maintained in a culture medium consisting of a mixture of maturation medium and keratinocyte growth medium (Promocell) at a temperature of 37° C. under 5% CO2. The culture medium was changed every 2-3 days. After a 17-day co-culture period, the composition was added to the medium at a final concentration by weight relative to the total weight of the medium and composition of 0.01% or 0.05% (w/w). After a 24-hour incubation period, capsaicin (10 µM) or AITC (1 mM) or DMSO (0.2% w/w) as a control, was added to the co-culture in the presence of the composition according to the invention. […] The results are expressed as the mean of 6 samples (n=6).

Row | Compound | Protein amount of CGRP (%) (neuropeptide CGRP [1]) | Level of MOR receptor protein expression (%) [2] [%] | Length of neuronal extensions/nbr of neurons (%) [3] [%] | Level of MOR receptor protein expression (%) [4] [%] | Protein amount of CGRP (%) (neuropeptide CGRP [5])
1 | C=CCN=C=S [AITC, allyl isothiocyanate] | 132 | 78 | – | – | –
2 | COc1cc(CNC(=O)CCCC/C=C/C(C)C)ccc1O [capsaicin] | – | – | 76 | 82 | 135

Reference: US20250041190A1, “Composition and application, in particular cosmetic” (MICROPHYT, priority 2021, published 2025)
